Entries after “also recorded” stand apart in the source; their conditions may differ.
Assays:
[1] = tested on: GAL4-human PPARα fusion protein; test: GAL4 reporter gene assay in CV-1 cells, human PPARα; format: cell-based; conditions: first 'Human PPAR-•' line (taken as α), pG5luc reporter
[2] = target: T1, PPARγ (Homo sapiens, UniProt P37231); conditions: FEBS Letters 473 (2000) 333-336; read-out: affinity to PPARγ (Ki); cited from earlier work
T1 sequence (P37231 1-505): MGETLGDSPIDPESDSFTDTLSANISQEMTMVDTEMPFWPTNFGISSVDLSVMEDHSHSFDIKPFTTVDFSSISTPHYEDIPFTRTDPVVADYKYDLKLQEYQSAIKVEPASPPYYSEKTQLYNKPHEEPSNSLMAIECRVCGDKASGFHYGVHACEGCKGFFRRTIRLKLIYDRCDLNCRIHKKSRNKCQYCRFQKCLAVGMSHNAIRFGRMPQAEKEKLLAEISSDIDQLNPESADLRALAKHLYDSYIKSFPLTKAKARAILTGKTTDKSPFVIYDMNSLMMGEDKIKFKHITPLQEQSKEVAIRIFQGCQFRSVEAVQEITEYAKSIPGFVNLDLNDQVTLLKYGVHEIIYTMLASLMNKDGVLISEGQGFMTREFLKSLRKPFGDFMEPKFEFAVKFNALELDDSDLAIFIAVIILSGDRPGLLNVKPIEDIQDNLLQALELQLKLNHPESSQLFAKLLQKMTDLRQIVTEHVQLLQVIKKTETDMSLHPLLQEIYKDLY

[3] = tested on: GAL4-human PPARγ fusion protein; test: GAL4 reporter gene assay in CV-1 cells, human PPARγ; format: cell-based; conditions: second 'Human PPAR-•' line (taken as γ), pG5luc reporter
[4] = tested on: rat cerebral infarction model; test: Rat cerebral infarction model (middle cerebral artery-occluded reperfusion, Koizumi method); format: in vivo; conditions: for Lesions with cerebral infarction (area in % of damaged site in the 6 sections), Cortex / Lesions with cerebral infarction (area in % of damaged site in the 6 sections), Subcortex / Lesions with cerebral infarction (area in % of damaged site in the 6 sections), Total: 24 h after reperfusion; for action to reduce cerebral infarction (in words): rat cerebral infarction model
[5] = tested on: SH-SY5Y cells; test: Thapsigargin-induced cellular death model, dead cells by LDH assay; format: cell-based, human; conditions: thapsigargin + (100 nM), 24 h, concentration not given
Procedure: SH-SY5Y cells were plated on a 96-well plate (70,000 cell/well in 100 μl DMEM low glucose 10% fetal bovine serum) for overnight culturing, from which the culture medium was removed with an aspirator. Then, DMEM without serum was added at 50 μl/well. […] 2 hours later, DMEM without serum containing 600 nM thapsigargin was added at 20 μl/well. (Thapsigargin to a final 100 nM concentration) (For a control, DMEM without serum alone was added.) 24 hours later, the absorbance at 490 nm was assayed with a cytotoxicity detection kit (Roche) to assay the LDH activity. […] An apparent correlation between the result of the viable cell count as determined by MTT assay in Example 1 and the LDH activity is shown. The above results clearly indicate that the PPARδ agonists are effective on the suppression of the thapsigargin-induced cellular death.

[6] = tested on: SH-SY5Y cells; test: Staurosporine-induced cellular death model, viable cells by MTT assay; format: cell-based, human; conditions: for suppression of staurosporine-induced cellular death (in words): SH-SY5Y; for MTT assay A490: staurosporine + (150 nM), 24 h
Procedure: Cellular death was induced by adding a protein kinase inhibitor staurosporine to a neuroblastoma SH-SY5Y to examine the effect of PPARδ agonists on the suppression of cellular death. SH-SY5Y cells were plated on a 96-well plate (70,000 cell/well in 100 μl DMEM low glucose 10% fetal bovine serum) for overnight culturing, from which the culture medium was removed with an aspirator. Then, DMEM without serum was added at 50 μl/well. […] 2 hours later, DMEM without serum containing 900 nM staurosporine was added at 20 μl/well. (Staurosporine to a final 150 nM concentration) (For a control, DMEM without serum alone was added.) 24 hours later, the viable cell count was calculated from the absorbance at 490 nm, using Celltiter 96 Aqueous one solution cell proliferation assay kit (Promega).

[7] = tested on: GAL4-murine PPARγ fusion protein; test: GAL4 reporter gene assay in CV-1 cells, murine PPARγ; format: cell-based; conditions: second 'Murine PPAR-•' line (taken as γ), pG5luc reporter
[8] = target: T2, PPARδ (Homo sapiens, UniProt Q03181); conditions: FEBS Letters 473 (2000) 333-336; read-out: affinity to PPARδ (Ki); cited from earlier work
T2 sequence (Q03181 1-441): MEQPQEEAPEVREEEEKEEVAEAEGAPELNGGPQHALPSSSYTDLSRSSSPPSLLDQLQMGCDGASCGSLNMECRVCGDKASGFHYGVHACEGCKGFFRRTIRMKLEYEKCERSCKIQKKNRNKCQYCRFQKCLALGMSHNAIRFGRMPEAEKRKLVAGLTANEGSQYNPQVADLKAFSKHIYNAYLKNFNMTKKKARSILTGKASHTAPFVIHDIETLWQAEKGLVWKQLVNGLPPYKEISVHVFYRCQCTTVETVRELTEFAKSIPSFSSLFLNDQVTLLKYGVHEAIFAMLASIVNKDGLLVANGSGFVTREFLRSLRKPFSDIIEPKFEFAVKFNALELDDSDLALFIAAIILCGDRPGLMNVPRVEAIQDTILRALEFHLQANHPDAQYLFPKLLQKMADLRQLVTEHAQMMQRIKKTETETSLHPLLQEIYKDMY

[9] = tested on: GAL4-human PPARδ fusion protein; test: GAL4 reporter gene assay in CV-1 cells, human PPARδ; format: cell-based; conditions: third 'Human PPAR-•' line (taken as δ), pG5luc reporter
[10] = tested on: GAL4-murine PPARδ fusion protein; conditions: third 'Murine PPAR-•' line (taken as δ); CV-1 cells, pG5luc reporter
[11] = tested on: GAL4-murine PPARα fusion protein; test: GAL4 reporter gene assay in CV-1 cells, murine PPARα; format: cell-based; conditions: first 'Murine PPAR-•' line (taken as α), pG5luc reporter
[12] = 2nd '+' line (presumably 0.1 μM)
[13] = 4th '+' line (presumably 10 μM)
[14] = 5th '+' line (presumably 100 μM)

| Structure (SMILES) | Lesions with cerebral infarction (area in % of damaged site in the 6 sections), Cortex ([4]; 24 μg/head/day i.c.v.) [%] | Lesions with cerebral infarction (area in % of damaged site in the 6 sections), Subcortex ([4]; 24 μg/head/day i.c.v.) [%] | Lesions with cerebral infarction (area in % of damaged site in the 6 sections), Total ([4]; 24 μg/head/day i.c.v.) [%] | Lesions with cerebral infarction (area in % of damaged site in the 6 sections), Cortex ([4]; 240 μg/head/day i.c.v.) [%] | Lesions with cerebral infarction (area in % of damaged site in the 6 sections), Subcortex ([4]; 240 μg/head/day i.c.v.) [%] | Lesions with cerebral infarction (area in % of damaged site in the 6 sections), Total ([4]; 240 μg/head/day i.c.v.) [%] | action to reduce cerebral infarction (in words) [4] | LDH release A490 [5, 12] | LDH release A490 ([5]; 3rd '+' line (presumably 1 μM)) | LDH release A490 [5, 13] | LDH release A490 [5, 14] | suppression of staurosporine-induced cellular death (in words) [6] | MTT assay A490 ([6]; compound 0.1 μM) | MTT assay A490 ([6]; compound 1 μM) | MTT assay A490 ([6]; compound 10 μM) | other results |
| --- | --- | --- | --- | --- | --- | --- | --- | --- | --- | --- | --- | --- | --- | --- | --- | --- |
| CCCc1c(OCCCOc2ccc(OCC(=O)O)cc2)ccc(C(C)=O)c1O [L-165041, 4-[3-[2-propyl-3-hydroxy-4-acetyl]phenoxy]propyloxyphenoxy acetic acid] | 12.70 ± 0.63 | 9.98 ± 0.30 | 22.68 ± 0.83 | 10.22 ± 1.29 | 9.19 ± 0.85 | 19.40 ± 1.98 | potent actions to reduce cerebral infarction | 0.6758 ± 0.0183 | 0.6295 ± 0.0139 | 0.6029 ± 0.0135 | 0.2987 ± 0.0128 | suppression of staurosporine-induced cellular death in a concentration-dependent manner | 0.5523 ± 0.0209 | 0.5532 ± 0.0056 | 0.5167 ± 0.0098 | Concentration for action exertion [1]: 10 M; Ki [2]: 730 nM; Concentration for action exertion [3]: 10 M; Reduction ratio of cerebral cortex damage ([4]; i.c.v. 24 •g/head/day): 9%; Reduction ratio of cerebral cortex damage ([4]; i.c.v. 240 •g/head/day): 27%; Concentration for action exertion [7]: 10 M; Ki [8]: 6 nM; Concentration for action exertion [9]: 0.1 M; Concentration for action exertion [10]: 0.1 M; Concentration for action exertion [11]: >100 M |
| Cc1cc(SCc2sc(-c3ccc(C(F)(F)F)cc3)nc2C)ccc1OCC(=O)O [GW501516] | 9.39 ± 1.56 | 9.35 ± 0.65 | 18.74 ± 2.00 | 7.26 ± 1.67 | 7.88 ± 0.79 | 15.14 ± 2.20 | potent actions to reduce cerebral infarction; also recorded: far greater action of reducing cerebral damages | 0.6225 ± 0.0229 | 0.5750 ± 0.0212 | 0.3325 ± 0.0259 | 0.6675 ± 0.0328 | suppression of staurosporine-induced cellular death in a concentration-dependent manner | 0.5179 ± 0.0140 | 0.5367 ± 0.0149 | 0.5860 ± 0.0086 | – |

From patent publication US20070037882A1, “Remedy for cerebral neurodegenerative diseases using ppar agonist” (Astellas Pharma Inc., priority 2003, published 2007)
